These compounds were tested against PD-L1 His protein / PD-1 Fc protein (Homo sapiens, UniProt Q9NZQ7) (assay: HTRF Assay (PD-1/PD-L1 interaction)). Conditions: PD-L1 His 6 nM, PD-1 Fc 6 nM.
Assay type: binding
In short: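 Compounds tested from 20 μM down to 0.001 μM (3-fold) against 6 nM PD-L1 His and 6 nM PD-1 Fc, 15 min room temperature incubation. Detection after 1 h at room temperature with Tb cryptate anti-6HIS and XL665 anti-human IgG reagents (mixture at 0.35 nM and 6.7 nM), HTRF signal.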

Chain of PD-L1 His protein / PD-1 Fc protein (Q9NZQ7 19-238 limits assumed): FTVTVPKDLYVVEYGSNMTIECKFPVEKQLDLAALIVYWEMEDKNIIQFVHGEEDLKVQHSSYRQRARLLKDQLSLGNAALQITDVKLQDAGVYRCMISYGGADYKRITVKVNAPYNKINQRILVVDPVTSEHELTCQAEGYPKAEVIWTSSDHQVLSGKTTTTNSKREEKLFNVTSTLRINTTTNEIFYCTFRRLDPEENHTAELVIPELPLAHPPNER

How did the IC50 turn out when `COc1cc(-c2cccc(-c3cccc(-c4ccc(CNC[C@@H]5CCC(=O)N5)c(OC)n4)c3Cl)c2Cl)cc2c1CN(C[C@@H](C)O)CC2` [Example 419, (S)-5-((((6-(2,2′-Dichloro-3′-(2-((R)-2-hydroxypropyl)-8-methoxy-1,2,3,4-tetrahydroisoquinolin-6-yl)-[1,1′-biphenyl]-3-yl)-2-methoxypyridin-3-yl)methyl)amino)methyl)pyrrolidin-2-one] was run?
Its IC50 is 26 nM.

How did the IC50 turn out when `COc1nc(-c2cccc(-c3cccc(-c4cnc5c(CNC[C@@H]6CCC(=O)N6)c(C)nn5c4)c3Cl)c2Cl)ccc1CNC[C@@H]1CCC(=O)N1` [Example 420, (S)-5-((((6-(2,2′-Dichloro-3′-(2-methyl-3-(((((S)-5-oxopyrrolidin-2-yl)methyl)amino)methyl)pyrazolo[1,5-a]pyrimidin-6-yl)-[1,1′-biphenyl]-3-yl)-2-methoxypyridin-3-yl)methyl)amino)methyl)pyrrolidin-2-one] was run?
The IC50 was 0.6 nM.

How did the IC50 turn out when `COc1nc(-c2cccc(-c3cccc(-c4ccc5c(=O)nc(CNC[C@@H]6CCC(=O)N6)[nH]c5c4)c3Cl)c2Cl)ccc1CNC[C@@H]1CCC(=O)N1` [Example 421, 7-(2,2′-Dichloro-3′-(6-methoxy-5-(((((S)-5-oxopyrrolidin-2-yl)methyl)amino)methyl)pyridin-2-yl)-[1,1′-biphenyl]-3-yl)-2-(((((S)-5-oxopyrrolidin-2-yl)methyl)amino)methyl)quinazolin-4(1H)-one] was run?
The IC50 was 14 nM.

How did the IC50 turn out when `COc1nc(-c2cccc(-c3cccc(-c4ccc5nc(CNC[C@@H]6CCC(=O)N6)ncc5c4)c3Cl)c2Cl)ccc1CNC[C@@H]1CCC(=O)N1` [Example 422, (S)-5-((((6-(2,2′-Dichloro-3′-(2-(((((S)-5-oxopyrrolidin-2-yl)methyl)amino)methyl)quinazolin-6-yl)-[1,1′-biphenyl]-3-yl)-2-methoxypyridin-3-yl)methyl)amino)methyl)pyrrolidin-2-one] was run?
The IC50 was 4.1 nM.

Which IC50 does the source give for `COc1cc(-c2cccc(-c3cccc(-c4ccc(CNC[C@@H]5CCC(=O)N5)c(OC)n4)c3Cl)c2Cl)cc2c1CCN(C[C@@H]1CCC(=O)N1)C2` [Example 424, (S)-5-((((6-(2,2′-Dichloro-3′-(5-methoxy-2-(((S)-5-oxopyrrolidin-2-yl)methyl)-1,2,3,4-tetrahydroisoquinolin-7-yl)-[1,1′-biphenyl]-3-yl)-2-methoxypyridin-3-yl)methyl)amino)methyl)pyrrolidin-2-one] here?
The IC50 was 27 nM.

For `COc1nc(-c2cccc(-c3cccc(-c4cc(F)c5c(c4)CCN(C[C@@H]4CCC(=O)N4)C5)c3Cl)c2Cl)ccc1CNC[C@@H]1CCC(=O)N1` [Example 425, (S)-5-((6-(2,2′-Dichloro-3′-(6-methoxy-5-(((((S)-5-oxopyrrolidin-2-yl)methyl)-amino)-methyl)-pyridin-2-yl)-[1,1′-biphenyl]-3-yl)-8-fluoro-3,4-dihydroisoquinolin-2(1H)-yl)methyl)pyrrolidin-2-one], which IC50 is on record?
Its IC50 is 8.3 nM.

Which IC50 does the source give for `COc1nc(-c2cccc(-c3cccc(-c4ccc5c(n4)CCN(C[C@@H]4CCC(=O)N4)C5)c3Cl)c2Cl)ccc1CNC[C@@H]1CCC(=O)N1` [Example 426, (S)-5-((((6-(2,2′-Dichloro-3′-(6-(((S)-5-oxopyrrolidin-2-yl)-methyl)-5,6,7,8-tetrahydro-1,6-naphthyridin-2-yl)-[1,1′-biphenyl]-3-yl)-2-methoxypyridin-3-yl)-methyl)-amino)-methyl)pyrrolidin-2-one] here?
Its IC50 is 0.1 nM.

For `COc1nc(-c2cccc(-c3cccc(-c4ccc5c(c4Cl)CN(C[C@@H]4CCC(=O)N4)CC5)c3Cl)c2Cl)ccc1CNC[C@@H]1CCC(=O)N1` [Example 427, (S)-5-((8-Chloro-7-(2,2′-dichloro-3′-(6-methoxy-5-(((((S)-5-oxopyrrolidin-2-yl)methyl)-amino)-methyl)-pyridin-2-yl)-[1,1′-biphenyl]-3-yl)-3,4-dihydroisoquinolin-2(1H)-yl)methyl)pyrrolidin-2-one], which IC50 is on record?
Its IC50 is 5.2 nM.

`COc1nc(-c2cccc(-c3cccc(-c4ccc5c(c4F)CN(C[C@@H]4CCC(=O)N4)CC5)c3Cl)c2Cl)ccc1CNC[C@@H]1CCC(=O)N1` [Example 428, (S)-5-((7-(2,2′-Dichloro-3′-(6-methoxy-5-(((((S)-5-oxopyrrolidin-2-yl)methyl)-amino)methyl)-pyridin-2-yl)-[1,1′-biphenyl]-3-yl)-8-fluoro-3,4-dihydroisoquinolin-2(1H)-yl)methyl)-pyrrolidin-2-one] was tested. Which IC50 did it give?
Its IC50 is 140 nM.

How did the IC50 turn out when `O=C1CC[C@@H](CNCc2nc3cc(-c4cccc(-c5cccc(-c6ccn7c(=O)c(CNC[C@@H]8CCC(=O)N8)cnc7c6)c5Cl)c4Cl)ccn3c2Cl)N1` [Example 429, 8-[2-Chloro-3-[2-chloro-3-[3-chloro-2-[[[(2S)-5-oxopyrrolidin-2-yl]methylamino]methyl]imidazo[1,2-a]pyridin-7-yl]phenyl]phenyl]-3-[[[(2S)-5-oxopyrrolidin-2-yl]methylamino]methyl]pyrido[1,2-a]pyrimidin-4-one] was run?
Its IC50 is 240 nM.

`O=C1CC[C@@H](CNCc2nc3cc(-c4cccc(-c5cccc(-c6ccn7c(Cl)c(CNC[C@@H]8CCC(=O)N8)nc7c6)c5Cl)c4Cl)ccn3c2Cl)N1` [Example 430, (5S)-5-[[[3-Chloro-7-[2-chloro-3-[2-chloro-3-[3-chloro-2-[[[(2S)-5-oxopyrrolidin-2-yl]methylamino]methyl]imidazo[1,2-a]pyridin-7-yl]phenyl]phenyl]imidazo[1,2-a]pyridin-2-yl]methylamino]methyl]pyrrolidin-2-one] was tested. Which IC50 did it give?
The IC50 was 170 nM.

Which IC50 does the source give for `COc1cc(-c2cccc(-c3cccc(-c4ccn5c(=O)c(CNC[C@@H]6CCC(=O)N6)cnc5c4)c3Cl)c2Cl)nc(Cl)c1CNC[C@@H]1CCC(=O)N1` [Example 431, 8-(2,2′-Dichloro-3′-(6-chloro-4-methoxy-5-(((((S)-5-oxopyrrolidin-2-yl)methyl)-amino)-methyl)pyridin-2-yl)-[1,1′-biphenyl]-3-yl)-3-(((((S)-5-oxopyrrolidin-2-yl)methyl)amino)methyl)-4H-pyrido[1,2-a]pyrimidin-4-one] here?
Its IC50 is 180 nM.

Which IC50 does the source give for `COc1nc(-c2cccc(-c3cccc(-c4cnc5c(c4)CCCC5NC[C@@H]4CCC(=O)N4)c3Cl)c2Cl)ccc1CNC[C@@H]1CCC(=O)N1` (stereo partly drawn) [Example 432, (5S)-5-(((3-(2,2′-Dichloro-3′-(6-methoxy-5-(((((S)-5-oxopyrrolidin-2-yl)-methyl)-amino)methyl)-pyridin-2-yl)-[1,1′-biphenyl]-3-yl)-5,6,7,8-tetrahydroquinolin-8-yl)amino)-methyl)-pyrrolidin-2-one] here?
Its IC50 is 270 nM.

Which IC50 does the source give for `COc1nc(-c2cccc(-c3cccc(-c4ccc5c(n4)CCC[C@@H]5NC[C@@H]4CCC(=O)N4)c3Cl)c2Cl)ccc1CNC[C@@H]1CCC(=O)N1` [Example 435, (S)-5-((((6-(2,2′-Dichloro-3′-((S)-5-((((S)-5-oxopyrrolidin-2-yl)methyl)amino)-5,6,7,8-tetrahydroquinolin-2-yl)-[1,1′-biphenyl]-3-yl)-2-methoxypyridin-3-yl)methyl)amino)methyl)pyrrolidin-2-one] here?
The IC50 was 23 nM.

`COc1nc(-c2cccc(-c3cccc(-c4cc5c(=O)n(C)c(CN(C)C[C@H](C)O)nn5c4)c3Cl)c2Cl)ccc1CNC[C@@H]1CCC(=O)N1` [Example 436, 6-(2,2′-dichloro-3′-(6-methoxy-5-(((((S)-5-oxopyrrolidin-2-yl)methyl)amino)methyl)pyridin-2-yl)-[1,1′-biphenyl]-3-yl)-2-((((S)-2-hydroxypropyl)(methyl)amino)methyl)-3-methylpyrrolo[2,1-f][1,2,4]triazin-4(3H)-one] was tested. Which IC50 did it give?
The IC50 was 26 nM.
